Data taken from article PMC2873968, “Novel protein kinase D inhibitors cause potent arrest in prostate cancer cell growth and motility” (BMC Chemical Biology, 2010).

Columns and labels:
[1] = biological target: CAMK4 (Homo sapiens, UniProt Q16566); assay: Kinase profiling, single-dose in vitro kinase assay (Caliper Life Sciences); conditions: read-out: Average % Inhibition CAMK4
[2] = biological target: AKT2 (Homo sapiens, UniProt P31751); assay: as above; conditions: read-out: Average % Inhibition AKT2
[3] = biological target: FLT3 (Homo sapiens, UniProt P36888); assay: as above; conditions: read-out: Average % Inhibition FLT3
[4] = biological target: PDK1 (Homo sapiens, UniProt O15530); assay: as above; conditions: read-out: Average % Inhibition PDK1
[5] = biological target: T1, PKD2 (Homo sapiens, UniProt Q9BZL6); assay: as above; conditions: read-out: Average % Inhibition PKD2
T1 sequence (Q9BZL6 1-878): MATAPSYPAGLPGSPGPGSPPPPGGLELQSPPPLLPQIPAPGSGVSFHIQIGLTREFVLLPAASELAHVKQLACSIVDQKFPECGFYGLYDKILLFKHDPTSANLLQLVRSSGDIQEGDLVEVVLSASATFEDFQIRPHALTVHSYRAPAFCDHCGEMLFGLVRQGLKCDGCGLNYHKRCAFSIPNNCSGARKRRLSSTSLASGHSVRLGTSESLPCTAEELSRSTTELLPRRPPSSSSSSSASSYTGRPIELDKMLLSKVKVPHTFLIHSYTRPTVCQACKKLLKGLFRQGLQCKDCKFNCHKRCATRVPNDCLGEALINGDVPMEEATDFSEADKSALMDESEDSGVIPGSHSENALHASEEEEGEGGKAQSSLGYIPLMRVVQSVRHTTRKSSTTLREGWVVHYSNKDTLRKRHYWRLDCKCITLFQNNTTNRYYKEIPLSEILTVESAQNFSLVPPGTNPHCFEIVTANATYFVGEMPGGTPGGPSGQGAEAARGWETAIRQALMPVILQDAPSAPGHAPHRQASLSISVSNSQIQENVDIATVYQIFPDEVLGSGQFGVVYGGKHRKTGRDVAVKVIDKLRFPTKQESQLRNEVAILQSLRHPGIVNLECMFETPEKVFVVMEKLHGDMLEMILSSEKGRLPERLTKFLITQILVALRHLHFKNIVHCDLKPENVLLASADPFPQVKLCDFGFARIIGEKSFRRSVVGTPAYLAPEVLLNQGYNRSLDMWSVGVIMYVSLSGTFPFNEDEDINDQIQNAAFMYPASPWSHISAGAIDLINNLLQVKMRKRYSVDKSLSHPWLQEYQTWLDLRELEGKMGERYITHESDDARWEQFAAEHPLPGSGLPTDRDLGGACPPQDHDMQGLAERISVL

[6] = biological target: FGFR1 (Homo sapiens, UniProt P11362); assay: as above; conditions: read-out: Average % Inhibition FGFR1
[7] = tested on: protein kinase B (AKT/PKB); parameters: method as in PMID 18829454; conditions: previously reported; cited from earlier work
[8] = biological target: p38a (Homo sapiens, UniProt Q16539); assay: Kinase profiling, single-dose in vitro kinase assay (Caliper Life Sciences); conditions: read-out: Average % Inhibition p38a
[9] = biological target: PKCζ (Homo sapiens, UniProt Q05513); assay: as above; conditions: read-out: Average % Inhibition PKCζ
[10] = biological target: PKCη (Homo sapiens, UniProt P24723); assay: as above; conditions: read-out: Average % Inhibition PKCη
[11] = biological target: c-Raf (Homo sapiens, UniProt P04049); assay: as above; conditions: read-out: Average % Inhibition c-Raf
[12] = biological target: BTK (Homo sapiens, UniProt Q06187); assay: as above; conditions: read-out: Average % Inhibition BTK
[13] = biological target: Erk2 (Homo sapiens, UniProt P28482); assay: as above; conditions: read-out: Average % Inhibition Erk2
[14] = biological target: PKCγ (Homo sapiens, UniProt P05129); assay: as above; conditions: read-out: Average % Inhibition PKCγ
[15] = biological target: PKG1α (Homo sapiens, UniProt Q13976); assay: as above; conditions: read-out: Average % Inhibition PKG1α
[16] = biological target: MET (Homo sapiens, UniProt P08581); assay: as above; conditions: read-out: Average % Inhibition MET
[17] = biological target: RSK1 (Homo sapiens, UniProt Q15418); assay: as above; conditions: read-out: Average % Inhibition RSK1
[18] = biological target: T2, CAMKIIα (Homo sapiens, UniProt Q9UQM7); parameters: method as in PMID 18829454; conditions: previously reported; cited from earlier work
T2 construct: purchased Enzo Life Sciences

[19] = biological target: IGF1R (Homo sapiens, UniProt P08069); assay: Kinase profiling, single-dose in vitro kinase assay (Caliper Life Sciences); conditions: read-out: Average % Inhibition IGF1R
[20] = biological target: IBSR (Homo sapiens, UniProt P06213); assay: as above; conditions: read-out: Average % Inhibition IBSR
[21] = biological target: PKA (Homo sapiens, UniProt P17612); assay: as above; conditions: read-out: Average % Inhibition PKA
[22] = tested on: PC3 cells; assay: Cell proliferation assay (cell counts, trypan blue); assay type: cell-based; conditions: 10 μM, cell counts over six days
Description: Cells were allowed to attach overnight.

PDK1, sequence (O15530 whole entry): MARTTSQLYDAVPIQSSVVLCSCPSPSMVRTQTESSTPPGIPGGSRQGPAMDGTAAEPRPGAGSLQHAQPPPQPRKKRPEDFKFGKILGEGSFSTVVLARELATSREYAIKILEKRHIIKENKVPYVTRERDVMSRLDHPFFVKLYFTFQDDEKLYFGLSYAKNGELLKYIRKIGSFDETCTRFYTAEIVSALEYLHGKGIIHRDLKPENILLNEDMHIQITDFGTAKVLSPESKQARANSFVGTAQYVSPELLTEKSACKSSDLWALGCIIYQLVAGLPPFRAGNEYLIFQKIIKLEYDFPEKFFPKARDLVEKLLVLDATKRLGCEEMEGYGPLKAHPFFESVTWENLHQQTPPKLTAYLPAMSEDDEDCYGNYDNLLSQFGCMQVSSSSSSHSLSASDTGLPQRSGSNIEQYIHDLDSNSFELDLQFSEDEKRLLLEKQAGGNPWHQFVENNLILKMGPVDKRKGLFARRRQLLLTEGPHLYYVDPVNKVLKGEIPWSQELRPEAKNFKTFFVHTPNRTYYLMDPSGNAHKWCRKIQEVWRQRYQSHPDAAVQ
PKCη, sequence (P24723 whole entry): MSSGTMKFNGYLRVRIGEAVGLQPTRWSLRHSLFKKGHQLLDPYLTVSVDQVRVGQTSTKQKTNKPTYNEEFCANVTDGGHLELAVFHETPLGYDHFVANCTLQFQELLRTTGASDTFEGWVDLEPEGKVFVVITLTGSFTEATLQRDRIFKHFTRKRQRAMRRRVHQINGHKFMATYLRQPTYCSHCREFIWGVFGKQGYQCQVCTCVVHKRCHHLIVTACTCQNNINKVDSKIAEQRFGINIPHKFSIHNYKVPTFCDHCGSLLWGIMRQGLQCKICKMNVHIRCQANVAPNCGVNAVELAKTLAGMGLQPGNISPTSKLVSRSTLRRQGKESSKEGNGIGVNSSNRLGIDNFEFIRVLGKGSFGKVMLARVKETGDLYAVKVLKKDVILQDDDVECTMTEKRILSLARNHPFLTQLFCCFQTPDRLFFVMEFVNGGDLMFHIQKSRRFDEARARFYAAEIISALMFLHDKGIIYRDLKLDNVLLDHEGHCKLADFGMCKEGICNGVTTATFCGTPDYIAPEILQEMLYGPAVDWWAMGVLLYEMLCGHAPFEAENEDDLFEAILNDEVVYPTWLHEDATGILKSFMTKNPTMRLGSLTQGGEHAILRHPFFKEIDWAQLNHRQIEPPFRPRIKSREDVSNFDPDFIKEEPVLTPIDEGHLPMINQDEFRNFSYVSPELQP
Erk2, sequence (P28482 whole entry): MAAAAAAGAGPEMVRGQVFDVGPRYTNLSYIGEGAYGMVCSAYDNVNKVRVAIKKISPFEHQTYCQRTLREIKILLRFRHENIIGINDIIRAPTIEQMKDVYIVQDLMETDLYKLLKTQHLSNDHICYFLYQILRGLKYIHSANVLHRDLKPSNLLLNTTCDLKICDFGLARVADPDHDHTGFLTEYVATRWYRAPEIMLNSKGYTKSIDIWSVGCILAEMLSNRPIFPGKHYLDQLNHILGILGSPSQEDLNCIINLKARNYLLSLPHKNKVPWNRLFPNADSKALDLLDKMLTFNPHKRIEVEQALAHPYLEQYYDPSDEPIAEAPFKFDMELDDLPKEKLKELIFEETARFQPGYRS
MET, sequence (P08581 25-1390): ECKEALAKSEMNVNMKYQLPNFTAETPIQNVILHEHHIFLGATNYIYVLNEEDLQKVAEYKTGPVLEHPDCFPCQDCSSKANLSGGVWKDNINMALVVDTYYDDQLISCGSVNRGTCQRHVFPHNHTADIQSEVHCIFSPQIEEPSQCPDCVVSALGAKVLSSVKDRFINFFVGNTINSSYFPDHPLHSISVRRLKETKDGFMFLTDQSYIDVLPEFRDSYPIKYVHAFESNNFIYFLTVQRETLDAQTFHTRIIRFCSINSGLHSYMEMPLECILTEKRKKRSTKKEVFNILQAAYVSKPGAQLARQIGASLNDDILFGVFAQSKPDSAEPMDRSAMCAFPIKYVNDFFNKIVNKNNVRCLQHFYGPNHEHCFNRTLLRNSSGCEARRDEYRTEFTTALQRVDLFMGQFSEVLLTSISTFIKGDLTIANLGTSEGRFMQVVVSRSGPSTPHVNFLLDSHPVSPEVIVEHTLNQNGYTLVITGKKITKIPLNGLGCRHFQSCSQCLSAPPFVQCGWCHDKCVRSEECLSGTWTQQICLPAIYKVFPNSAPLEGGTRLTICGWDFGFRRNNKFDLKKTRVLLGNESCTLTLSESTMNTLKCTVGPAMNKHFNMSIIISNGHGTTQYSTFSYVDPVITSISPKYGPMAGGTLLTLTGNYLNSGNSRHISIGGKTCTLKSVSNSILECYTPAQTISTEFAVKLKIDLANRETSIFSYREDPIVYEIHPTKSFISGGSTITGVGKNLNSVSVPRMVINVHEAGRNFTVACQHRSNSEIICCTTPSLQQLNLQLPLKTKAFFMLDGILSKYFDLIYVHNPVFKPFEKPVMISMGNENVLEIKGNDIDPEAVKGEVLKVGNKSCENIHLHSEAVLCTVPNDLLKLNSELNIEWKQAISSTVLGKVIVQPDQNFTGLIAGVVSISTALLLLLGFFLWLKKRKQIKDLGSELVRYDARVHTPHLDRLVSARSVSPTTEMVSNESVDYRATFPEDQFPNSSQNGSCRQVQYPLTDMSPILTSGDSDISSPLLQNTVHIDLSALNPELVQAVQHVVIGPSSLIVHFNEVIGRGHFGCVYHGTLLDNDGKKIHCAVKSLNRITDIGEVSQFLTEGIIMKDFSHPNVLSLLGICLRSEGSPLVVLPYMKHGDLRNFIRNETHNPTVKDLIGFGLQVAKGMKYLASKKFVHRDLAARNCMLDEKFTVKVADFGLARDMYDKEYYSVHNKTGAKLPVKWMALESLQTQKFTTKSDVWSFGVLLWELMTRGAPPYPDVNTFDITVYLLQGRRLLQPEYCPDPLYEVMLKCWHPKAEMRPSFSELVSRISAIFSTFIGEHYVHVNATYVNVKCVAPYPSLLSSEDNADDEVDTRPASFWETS
BTK, sequence (Q06187 whole entry): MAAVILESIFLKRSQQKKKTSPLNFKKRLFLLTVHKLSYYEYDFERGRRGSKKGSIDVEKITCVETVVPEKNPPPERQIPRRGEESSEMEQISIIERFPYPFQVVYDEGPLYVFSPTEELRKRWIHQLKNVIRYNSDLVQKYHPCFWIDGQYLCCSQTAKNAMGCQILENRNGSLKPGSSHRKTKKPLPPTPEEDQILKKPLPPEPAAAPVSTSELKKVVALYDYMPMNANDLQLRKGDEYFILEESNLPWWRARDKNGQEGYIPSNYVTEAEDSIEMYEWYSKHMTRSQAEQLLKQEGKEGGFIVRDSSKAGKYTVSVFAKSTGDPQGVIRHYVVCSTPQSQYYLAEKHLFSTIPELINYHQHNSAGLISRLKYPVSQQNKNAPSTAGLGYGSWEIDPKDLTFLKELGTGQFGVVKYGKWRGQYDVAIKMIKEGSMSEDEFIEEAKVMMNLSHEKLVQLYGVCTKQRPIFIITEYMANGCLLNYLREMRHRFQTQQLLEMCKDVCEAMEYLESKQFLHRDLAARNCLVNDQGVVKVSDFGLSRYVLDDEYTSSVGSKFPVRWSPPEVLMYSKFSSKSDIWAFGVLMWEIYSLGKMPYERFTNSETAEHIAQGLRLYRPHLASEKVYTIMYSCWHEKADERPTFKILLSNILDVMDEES
PKCζ, sequence (Q05513 whole entry): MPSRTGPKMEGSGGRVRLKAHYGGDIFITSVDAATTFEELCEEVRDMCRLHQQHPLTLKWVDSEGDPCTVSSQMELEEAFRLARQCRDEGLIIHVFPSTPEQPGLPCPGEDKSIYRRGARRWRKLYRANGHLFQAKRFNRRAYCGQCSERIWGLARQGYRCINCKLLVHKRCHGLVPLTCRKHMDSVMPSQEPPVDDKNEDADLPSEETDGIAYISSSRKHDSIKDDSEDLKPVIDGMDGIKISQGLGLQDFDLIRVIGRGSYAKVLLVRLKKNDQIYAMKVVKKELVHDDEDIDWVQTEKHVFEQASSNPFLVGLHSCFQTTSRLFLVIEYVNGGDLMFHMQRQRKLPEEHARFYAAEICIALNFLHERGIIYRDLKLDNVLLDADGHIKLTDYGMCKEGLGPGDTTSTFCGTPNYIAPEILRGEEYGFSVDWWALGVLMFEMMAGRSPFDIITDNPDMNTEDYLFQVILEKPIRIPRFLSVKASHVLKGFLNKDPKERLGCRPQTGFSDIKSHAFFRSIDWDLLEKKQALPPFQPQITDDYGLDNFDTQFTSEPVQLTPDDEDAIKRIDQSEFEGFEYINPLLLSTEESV

**Q.** What does the source list for `O=C1NCCCc2c1oc1ccc(O)cc21` [CID755673, 7-Hydroxy-2,3,4,5-tetrahydro-[1]benzoxolo[2,3-c]azepin-1-one]?
**A.** inhibition at 10 µM [1]: 17%; inhibition at 10 µM [2]: 4%; inhibition at 10 µM [3]: 14%; inhibition at 10 µM [4]: 22%; inhibition at 10 µM [5]: 95%; inhibition at 10 µM [6]: 16%; inhibition of protein kinase B (AKT/PKB) [7]: did not inhibit; inhibition at 10 µM [8]: 2%; inhibition at 10 µM [9]: -4%; inhibition at 10 µM [10]: 40%; inhibition at 10 µM [11]: 2%; inhibition at 10 µM [12]: -3%; inhibition at 10 µM [13]: 31%; inhibition at 10 µM [14]: 30%; inhibition at 10 µM [15]: 13%; inhibition at 10 µM [16]: 18%; inhibition at 10 µM [17]: 29%; inhibition of CAMKIIα [18]: did not inhibit; inhibition at 10 µM [19]: -2%; inhibition at 10 µM [20]: 3%; inhibition at 10 µM [21]: 6%

**Q.** For `O=C1NCCSc2c1sc1ccc(O)cc21` [kb-NB142-70], which “effect on cell proliferation” value [22] is on record?
**A.** Its value is “most potent among the compounds”.
